Like-named read-outs stand apart in the source and are kept apart here.
Tests used:
UBE2K = molecular target: T1, UBE2K (Homo sapiens, UniProt P61086); details: Strickson et al., 2013; cited from earlier work
T1 sequence (P61086 1-200): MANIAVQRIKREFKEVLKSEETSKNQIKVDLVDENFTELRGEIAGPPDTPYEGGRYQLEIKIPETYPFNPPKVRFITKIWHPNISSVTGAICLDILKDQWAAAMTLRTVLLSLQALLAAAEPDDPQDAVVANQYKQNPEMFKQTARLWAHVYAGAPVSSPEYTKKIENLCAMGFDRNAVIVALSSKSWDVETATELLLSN

[1] = tested on: SKHEP1 hepatocellular carcinoma cells; experiment: Cell number/viability by Cell Titer Fluor after siRNA transfection; assay type: cell-based; details: Homo sapiens, SK-HEP1, doxorubicin 72 h
Protocol: (§1) For initial validation studies, UBE2K was transiently knocked down using an siRNA mediated approach in Miapaca2, HepG2, SKHEP1, Hep3B, MDAMB231, SKBR3, T47D and BT549 cells. A non-targeting (NT) siRNA sequence was used as a control. Samples for confirmation of knock down at transcript and protein level were harvested 24 and 96 h post transfection, and the effect of UBE2K transient knock down was assessed on cell viability/cell number using Cell Titer Fluor at 96 h post transfection. In parallel, the effect of siRNA mediated UBE2K knock down on doxorubicin (cell death causing agent) sensitivity was assessed in the above mentioned cell lines. Cell were exposed to doxorubicin for 72 h beginning 24 h post transfection.

T47D cells = experiment: as above; assay type: cell-based; details: Homo sapiens, doxorubicin 72 h
Protocol: as §1

BT549 cells = experiment: as above; assay type: cell-based; details: Homo sapiens, BT-549, doxorubicin 72 h
Protocol: as §1

IC50 ([1]; SKHEP1, UBE2K siRNA knockdown, read-out: UBE2K siRNA 95% CI IC50) | IC50 ([1]; SKHEP1, control siRNA, read-out: Control siRNA 95% CI KSO) | IC50 (T47D cells; UBE2K siRNA knockdown, read-out: UBE2K siRNA 95% CI IC50) | IC50 (T47D cells; control siRNA, read-out: Control siRNA 95% CI KSO) | IC50 (BT549 cells; BT549, UBE2K siRNA knockdown, read-out: UBE2K siRNA 95% CI IC50) | IC50 (BT549 cells; BT549, control siRNA, read-out: Control siRNA 95% CI KSO) | SMILES | Loading of ubiquitin onto E2 conjugating enzymes such as UBE2K (UBE2K)
 |  |  |  |  |  | Cc1ccc(S(=O)(=O)/C=C/C#N)cc1 [BAY 11-7082, (E)3-[(4-Methylphenyl)sulfonyl]-2-propenenitrile] | inhibit the loading of ubiquitin onto E2 conjugating enzymes
10.1 to 13.7 nM | 8.58 to 11.3 nM | 96.1 to 220 nM | 112 to 290 nM | 91.2 to 243 nM | 165 to 381 nM | COc1cccc2c1C(=O)c1c(O)c3c(c(O)c1C2=O)C[C@@](O)(C(=O)CO)C[C@@H]3O[C@H]1C[C@H](N)[C@H](O)[C@H](C)O1 [doxorubicin] | 
